Paper PMC7733455, “A novel multistage antiplasmodial inhibitor targeting Plasmodium falciparum histone deacetylase 1” (Cell Discovery, 2020)

Key:
[1] = tested on: P. falciparum isolate 6218; assay: 3-day SYBR Green I GIA, field isolate 6218; assay type: cell-based; conditions: Plasmodium falciparum; artemisinin- and piperaquine-resistant isolate; read-out: Resistant isolates EC50, 6218
Procedure: (§1) A 3-day SYBR Green I inhibition EC50 assay was performed as described previously. Briefly, highly synchronized ring-stage parasites by 5% sorbitol (1% parasitemia and 2% hematocrit) were incubated in a 96-well plate with compounds in a total volume of 200 μL. […] The parasites were cultured for 72 h before SYBR Green I staining as described above. The EC50 was calculated by GraphPad Prism. DHA was used as a positive control, and the final concentration of DMSO was 1%.

P. falciparum CP286 = assay: 3-day SYBR Green I GIA, strain CP286; assay type: cell-based; conditions: Plasmodium falciparum; CP286 resistant to pyrimethamine and chloroquine; read-out: Resistant isolates EC50, CP286
Procedure: as §1

P. falciparum 3D7 [2] = assay: Ring-stage survival assay (RSA), sensitive strain 3D7; assay type: cell-based, Plasmodium falciparum; conditions: 700 nM
[3] = tested on: P. falciparum clinical isolates 6218 and 6320; assay: Ring-stage survival assay (RSA), isolates 6218 and 6320; assay type: cell-based, Plasmodium falciparum; conditions: 700 nM, 6 h exposure, synchronized rings of isolates 6218 and 6320
Procedure: An RSA was performed as described previously[65] to evaluate the activity of JX21108 against the artemisinin- and piperaquine-resistant P. falciparum clinical isolates 6218 and 6320[43]. Briefly, parasites were highly synchronized at 0–3 hpi by a 60%/40%-Percoll gradient[66] followed by 5% D-sorbitol[67] treatment after 3 h. The parasite suspension (0.5%–1% parasitemia, 2% hematocrit) was incubated with compounds at 700 nM in a total volume of 2 mL in a 48-well plate for 6 h. After that, the culture mixture was washed three times with 15 mL of CM before another 66 h of cultivation with CM. A Giemsa-stained blood smear was made after cultivation. Parasitemia was counted from at least 10,000 RBCs by microscopy. The survival rate was calculated as the percentage of that in DMSO control. DHA at a concentration of 700 nM served as a positive control.

[4] = tested on: P. falciparum isolate 6320; assay: 3-day SYBR Green I GIA, field isolate 6320; assay type: cell-based; conditions: Plasmodium falciparum; artemisinin- and piperaquine-resistant isolate; read-out: Resistant isolates EC50, 6320
Procedure: as §1

P. falciparum GB4 = assay: 3-day SYBR Green I GIA, strain GB4; assay type: cell-based; conditions: Plasmodium falciparum; GB4 resistant to chloroquine; read-out: Resistant isolates EC50, GB4
Procedure: as §1

P. falciparum C2A = assay: 3-day SYBR Green I GIA, strain C2A; assay type: cell-based; conditions: Plasmodium falciparum, read-out: Resistant isolates EC50, C2A
Procedure: as §1

P. falciparum Dd2 = assay: 3-day SYBR Green I GIA, multidrug-resistant strain Dd2; assay type: cell-based, Plasmodium falciparum; conditions: Plasmodium falciparum, 72 h; 3-day SYBR Green I GIA, multidrug-resistant strain Dd2; read-out: Antiplasmodial activity EC50, Dd2
Procedure: as §1

293T cells = assay: In vitro cytotoxicity analysis (CellTiter-Glo), 293T
Procedure: (§2) In all, 1% DMSO was used as a negative control. The inhibition of each drug was normalized to that of the DMSO control. EC50 was calculated by GraphPad Prism. Three independent assays with two technical replicates each time were conducted in this experiment.

[5] = as above; conditions: human, 293T cells, Cytotoxicity EC50, 293T, 72 h, CellTiter-Glo
Procedure: as §2

P. falciparum 3D7 [6] = assay: 3-day SYBR Green I growth inhibition assay (GIA), strain 3D7; assay type: cell-based, Plasmodium falciparum; conditions: Plasmodium falciparum, 3D7, 72 h, 3-day SYBR Green I GIA, drug-sensitive strain 3D7; read-out: Antiplasmodial activity EC50, 3D7
Procedure: as §1

HepG2 cells = assay: In vitro cytotoxicity analysis (CellTiter-Glo), HepG2
Procedure: as §2

[7] = as above; conditions: human, HepG2 cells
Procedure: as §2

[8] = tested on: parasite histone H3 acetylation; assay: Western blot of histone H3 acetylation in parasites; assay type: cell-based, Plasmodium falciparum; conditions: 4 h treatment of asynchronous 3D7; quisinostat/JX21108 5 and 20 nM, SAHA 500 nM
Procedure: Then the parasite samples were harvested and treated with 0.15% saponin to remove the RBC proteins and sonicated in 1% NP40 lysis buffer. After centrifugation at 12,000× g for 15 min, the supernatant was resuspended in a routine SDS loading buffer. Parasite proteins were separated by 10% SDS-PAGE and transferred onto PVDF membranes (Millipore). […] A2348) followed by a secondary antibody conjugated with HRP (Jackson Immuno Research Laboratories). The chemiluminescent HRP substrate Immobilon Western Kit (Millipore) was used for signal detection.

Structure (SMILES)	EC50 (P. falciparum Dd2)	EC50 (P. falciparum 3D7 [6])	EC50 [1]	EC50 (P. falciparum CP286)	RSA effect on ring-stage parasites of 3D7 (P. falciparum 3D7 [2])	RSA survival rate [3]	EC50 [4]	EC50 (P. falciparum GB4)	EC50 (P. falciparum C2A)	Selectivity index for 293T (EC50 293T/EC50 3D7) (293T cells)	EC50 at 72 h [5]	Selectivity index for HepG2 (EC50 HepG2/EC50 3D7) (HepG2 cells)	EC50 at 72 h [7]	pan-acetylation levels of parasite histone H3 [8]
C[C@H]1[C@@H](O)O[C@@H]2O[C@@]3(C)CC[C@H]4[C@H](C)CC[C@@H]1[C@@]24OO3 [DHA, dihydroartemisinin, reference compound]	–	–	5.5 ± 1.1 nM	5.6 ± 2.4 nM	efficiently killed the ring-stage parasites	~8%	6.5 ± 1.4 nM	3.2 ± 1.2 nM	3.7 ± 2.4 nM	–	–	–	–	–
Cl.Cn1cc(CN2CC3(CCN(c4ncc(C(=O)NO)cn4)CC3)C2)c2ccccc21 [JX21014]	10.7 ± 0.2 nM	16.9 ± 0.8 nM	–	–	–	–	–	–	–	67	1130 ± 26 nM	21	348 ± 24 nM	–
Cl.Cn1cc(CN2CCC3(CCCN(c4ncc(C(=O)NO)cn4)C3)CC2)c2ccccc21 [JX21017]	32.4 ± 1.8 nM	28.9 ± 1.2 nM	–	–	–	–	–	–	–	156	4497 ± 33 nM	98	2350 ± 93 nM	–
Cl.O=C(NO)c1cnc(N2CCC3(CCN(Cc4ccc5ccccc5c4)C3)C2)nc1 (centres unmarked) [JX21101]	2.18 ± 0.02 nM	3.5 ± 0.2 nM	–	–	–	–	–	–	–	331	1160 ± 193 nM	186	651 ± 63 nM	–
COc1ccc2c(c1)c(CN1CCC3(CCN(c4ncc(C(=O)NO)cn4)C3)C1)cn2C.Cl (centres unmarked) [JX21104]	3 ± 0.1 nM	1.6 ± 0.3 nM	–	–	–	–	–	–	–	217	659 ± 128 nM	176	534 ± 45 nM	–
Cl.O=C(NO)c1cnc(N2CCC3(CCN(Cc4ccc5c(c4)CCO5)C3)C2)nc1 (centres unmarked) [JX21109]	7 ± 0.3 nM	9.8 ± 0.3 nM	–	–	–	–	–	–	–	260	2560 ± 113 nM	133	1310 ± 73 nM	–
Cl.O=C(NO)c1cnc(N2CCC3(CCN(Cc4csc5ccccc45)C3)C2)nc1 (centres unmarked) [JX21115]	7.2 ± 0.2 nM	4.8 ± 0.1 nM	–	–	–	–	–	–	–	100	482 ± 42 nM	179	864 ± 76 nM	–
Cl.O=C(NO)c1cnc(N2CCC3(CCN(Cc4cc5ccccc5o4)C3)C2)nc1 (centres unmarked) [JX21117]	7.61 ± 0.05 nM	6.4 ± 0.3 nM	–	–	–	–	–	–	–	252	1610 ± 334 nM	255	1640 ± 25 nM	–
Cl.O=C(NO)c1cnc(N2CCC3(CCN(Cc4cc5ccccc5s4)C3)C2)nc1 (centres unmarked) [JX21118]	6.4 ± 1.3 nM	5.61 ± 0.04 nM	–	–	–	–	–	–	–	292	1640 ± 122 nM	298	1670 ± 230 nM	–
Cl.Cn1c(CN2CCC3(CCN(c4ncc(C(=O)NO)cn4)C3)C2)cc2ccccc21 (centres unmarked) [JX21123]	7.2 ± 0.3 nM	6.2 ± 1.3 nM	–	–	–	–	–	–	–	193	1200 ± 156 nM	202	1250 ± 62 nM	–
Cl.Cn1nc(CN2CCC3(CCN(c4ncc(C(=O)NO)cn4)C3)C2)c2ccccc21 (centres unmarked) [JX21124]	4.3 ± 0.5 nM	5.8 ± 0.9 nM	–	–	–	–	–	–	–	229	1330 ± 29 nM	195	1130 ± 168 nM	–
O=C(CCCCCCC(=O)Nc1ccccc1)NO [SAHA]	–	–	–	–	–	–	–	–	–	–	–	–	–	greatly increased the pan-acetylation levels of parasite histone H3

Further lines, with some results ahead:

EC50 (P. falciparum Dd2)	EC50 (P. falciparum 3D7 [6])	Structure (SMILES)	EC50 [1]	EC50 (P. falciparum CP286)	RSA effect on ring-stage parasites of 3D7 (P. falciparum 3D7 [2])	RSA survival rate [3]	EC50 [4]	EC50 (P. falciparum GB4)	EC50 (P. falciparum C2A)	Selectivity index for 293T (EC50 293T/EC50 3D7) (293T cells)	EC50 at 72 h [5]	Selectivity index for HepG2 (EC50 HepG2/EC50 3D7) (HepG2 cells)	EC50 at 72 h [7]	pan-acetylation levels of parasite histone H3 [8]
7.8 ± 1.3 nM	8 ± 0.5 nM	Cl.Cn1cc(CN2CCC3(CCN(c4ncc(C(=O)NO)cn4)C3)C2)c2ccncc21 (centres unmarked) [JX21129]	–	–	–	–	–	–	–	141	1120 ± 98 nM	192	1530 ± 69 nM	–
7.5 ± 2 nM	8.4 ± 0.4 nM	Cl.Cn1cc(CN2CCC3(CCN(c4ncc(C(=O)NO)cn4)C3)C2)c2cccnc21 (centres unmarked) [JX21130]	–	–	–	–	–	–	–	552	4640 ± 375 nM	140	1180 ± 84 nM	–
21.2 ± 0.9 nM	28.8 ± 18.5 nM	Cl.O=C(NO)c1cnc(N2CCC3(CCN(Cc4c5ccccc5cc5ccccc45)C3)C2)nc1 (centres unmarked) [JX21138]	–	–	–	–	–	–	–	69	1990 ± 559 nM	45	1310 ± 14 nM	–
5.4 ± 0.2 nM	10.5 ± 0.1 nM	Cl.O=C(NO)c1cnc(N2CCC3(CCN(Cc4ccc5c(c4)OCO5)C3)C2)nc1 (centres unmarked) [JX21140]	–	–	–	–	–	–	–	235	2450 ± 301 nM	47	493 ± 149 nM	–
1.736 ± 0.005 nM	3.3 ± 0.5 nM	Cl.Cn1cc(CN2CCC3(CCN(c4ncc(C(=O)NO)cn4)C3)C2)c2cc(Br)ccc21 (centres unmarked) [JX21141]	–	–	–	–	–	–	–	189	633 ± 209 nM	88	294 ± 45 nM	–
3.4 ± 2.2 nM	13.6 ± 4.2 nM	COc1ccc2c(CN3CCC4(CCN(c5ncc(C(=O)NO)cn5)C4)C3)cn(C)c2c1.Cl (centres unmarked) [JX21142]	–	–	–	–	–	–	–	90	1230 ± 102 nM	72	975 ± 1 nM	–
